Experimental data published in patent US20070104714A1, “Composition and method for the treatment of cancer and other physiologic conditins based on modulation of the ppar-gamma pathway and her-kinase axis” (CEDARS-SINAI MEDICAL CENTER, priority 2003, published 2007).

What was measured:
PPARγ1 = experiment: PPARγ protein (Western blot) and mRNA (RT-PCR) in treated prostate cancer xenografts; format: in vivo, nude mice; conditions: for PPARγ protein by immunoblot in xenograft lysates of combination study: 22 days of treatment
Protocol: (§1) Total RNA was extracted from prostate tumors or the LNCaP cell line using the TRIZOL reagent (obtained from Invitrogen Corp.; San Diego, Calif.). Samples were heated at 95° C. for 3 minutes and snap-cooled before proceeding with DNase I treatment to prevent RNA/DNA hybridization. DNase I (obtained from Ambion; Austin, Tex.) was used to remove any genomic DNA that might interfere with the reaction. Samples were treated with DNase I for 1 hour at 37° C. The RNA yield was quantified spectrometrically.
Total RNA was reverse-transcribed (RT) into cDNA and polymerase chain reaction (PCR) was performed in the same reaction using a real-time TAQman One-Step RT-PCR Master Mix Reagents Kit (obtained from Applied Biosystems; Foster City, Calif.). The sequences of the primer/probe sets used for this analysis are as follows. F and R are the forward and reverse primers, respectively, and P is the fluorescent-labeled probe.
The real-time one step RT-PCR cycling conditions for all primer sets were as follows: 30 min at 48° C. for RT step; 10 min at 95° C. for […] Gold Activation; and 40 cycles for cDNA denaturing (95° C., 15 s), and annealing/elongation (60° C. for 1 min) steps. PCR reactions for each template were done in triplicate using 1 μg of total RNA per sample. Each gene-specific primer pair was tested on standard 384-well plates. Standard curves were constructed using 10-1000 ng of total RNA prepared from the CWRSA6 tumor line.
The comparative CT method (Perkin Elmer Applied Biosystems; Foster City, Calif.) was used to determine relative quantification of gene expression for each gene compared with the β-actin control. First, the CT values from the β-actin reactions were averaged for each triplicate. Next, the CT values from the gene-of-interest reactions were averaged. The gene-of-interest average was […] the β-actin average to take into account the variability of total RNA.
(§2) Immunoblots were performed as described in Towbin H., “Electrophoretic Transfer of Proteins from Polyacrylamide Gels to Nitrocellulose Sheets: Procedure and Some Applications,” Proc. Natl. Acad. Sci. USA, Vol. 76, No. 9 p. 4350-4354 (1979) using aliquots of tumor lysates (100 μg per lane) or lysates from LNCaP cells (100 μg per lane). Protein concentration was determined with a Bradford Assay (obtained from Bio-Rad Inc.; Hercules, Calif.). The lysates were separated on 10% SDS polyacrylamide gels and transferred onto nitrocellulose filters. […]

[1] = Toxicity and weight loss in xenograft-bearing treated animals; format: in vivo, nude mice; conditions: for Lethal toxicity or significant weight loss: combination study, CWRSA6, R-etodolac 200 mg/kg daily, 2C4 20 mg/kg 2X/wk, three weeks
PPARγ = molecular target: T1, PPARγ (Homo sapiens, UniProt P37231); experiment: PPARγ reporter (AOx)3-TK-Luc transient transfection luciferase assay in RAW 267.4 cells; format: cell-based; conditions: for PPRE-driven reporter gene expression / PPARγ transactivation: varying concentrations, with recombinant PPARγ
T1 construct: expressed in transfected cells; host or cells: RAW 267.4 mouse macrophages
T1 sequence (P37231 1-505): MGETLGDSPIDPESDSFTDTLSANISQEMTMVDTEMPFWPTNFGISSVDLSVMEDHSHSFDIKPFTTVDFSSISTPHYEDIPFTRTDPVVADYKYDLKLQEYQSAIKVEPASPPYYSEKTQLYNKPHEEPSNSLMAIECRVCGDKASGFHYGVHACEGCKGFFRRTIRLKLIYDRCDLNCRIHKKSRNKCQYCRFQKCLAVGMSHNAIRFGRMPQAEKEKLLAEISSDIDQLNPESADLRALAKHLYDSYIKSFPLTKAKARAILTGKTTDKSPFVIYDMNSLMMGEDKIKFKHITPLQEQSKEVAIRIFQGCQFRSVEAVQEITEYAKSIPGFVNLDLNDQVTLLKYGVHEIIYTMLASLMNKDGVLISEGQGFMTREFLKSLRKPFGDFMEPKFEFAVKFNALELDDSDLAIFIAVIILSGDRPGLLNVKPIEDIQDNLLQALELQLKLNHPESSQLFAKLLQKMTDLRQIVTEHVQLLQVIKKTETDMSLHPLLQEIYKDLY
Protocol: […] cells were maintained at 37° C. and 5% CO2 in Dulbecco's modified eagle medium (DMEM) with high glucose (obtained from GIBCO; Grand Island, N.Y.) supplemented with 10% fetal bovine serum (FBS), 100 μg/ml penicillin and 100 μg/ml streptomycin.
For transfection, cells were grown in DMEM with 10% FBS for at least 24 hours prior to transfection. Transient transfections were performed in 12-well plates for at least 24 hours prior to transfection. At approximately 50% confluence, cells were transfected using the FuGENE transfection reagent (obtained from Roche Diagnostics GmbH; Mannheim, Germany) according to the manufacturer's instruction with 0.5 μg of reporter plasmid (AOx)3-TK-Luc, 0.1 to 0.2 μg of control plasmid pCMXμgal, 0.1 μg PPARγ expression plasmid and carrier DNA for a total of 1 μg DNA per well. After 16 hours, the cells were washed and fresh medium containing the appropriate amount of drugs, prepared in 0.5% DMSO, was added to the cells for another 24 hours. The cells were treated with either vehicle alone (DMSO), indomethacin, rosiglitazone or varying concentrations of R- or S-etodolac.
For luciferase assays, cells were lysed in potassium phosphate buffer containing 1% TRITON X-100 (obtained from Rohm and Haas Co.; Philadelphia, Pa.) and light emission was detected in the presence of luciferin using a microtiter plate luminometer. Luciferase values were normalized for variations in transfection efficiency using a β-galactosidase internal control. The results are expressed as relative luciferase units (RLU). The luciferase activity values represent the mean of a minimum of three independent transfections performed in triplicate.
The 22Rv1 cells were seeded into 100 mm dishes and allowed to attach for a period of 18 hours. The media was then replaced with phenol red-free and serum-free RPMI 1640, with 100 μg/ml penicillin and 100 μg/ml streptomycin ±R-etodolac for the indicated times. MAP-kinase activation was assessed by Western blot analysis using methods described above. LNCaP cells were treated with R-etodolac at 200, 400, and 600 μM concentrations for 18 Hours. Total protein or RNA was isolated using methods as described previously. Cyclin D1 protein and mRNA expression were assessed by western blot and a real-time quantitative RT-PCR assay as previously described. This transactivation function is mediated only in the presence of recombinant PPARγ.

[2] = test system: cyclin D1 expression in LNCaP cells; experiment: Cyclin D1 mRNA (RT-PCR) and protein (Western blot) expression in LNCaP cells; format: cell-based, human
Protocol: as §1, with “spectrometrically. […]” for “spectrometrically.”
(§3) The mRNA expression of cyclin D1 (Takayasu, H. et al., “Frequent deletions and mutations of the beta-catenin gene are associated with overexpression of cyclin D1 and fibronectin and poorly differentiated histology in childhood hepatoblastoma,” Clin. Cancer Res., Vol. 7, p. 901-908 (2001)) and the HER-kinase receptors were analyzed using primer sets as described in Agus, D. B. et al, “Targeting ligand activated ErbB2 signaling inhibits breast and prostate tumor growth,” Cancer Cell, Vol. 2, p. […]
(§4) The comparative CT method (Perkin Elmer Applied Biosystems; Foster City, Calif.) was used to determine relative quantification of gene expression for each gene compared with the β-actin control. […]
The 22Rv1 cells were seeded into 100 mm dishes and allowed to attach for a period of 18 hours. […] MAP-kinase activation was assessed by Western blot analysis using methods described above. […]

[3] = test system: CD36 expression in THP-1 cells; experiment: TPA-induced CD36 scavenger receptor expression in THP-1 cells by flow cytometry; format: cell-based, human; conditions: 200 μM, TPA 40 ng/ml
Protocol: Prostate carcinoma cell lines, 22Rv1 and LNCaP, and human acute monocytic leukemia (THP-1) cells were obtained from the American Type Culture Collection (Rockville, Md.) and maintained in RPMI 1640 medium supplemented with 10% FBS, 100 μg/ml penicillin and 100 μg/ml streptomycin (obtained from GIBCO; Grand Island, N.Y.). […] Second, the combination of PPARγ transactivation, together with protein kinase C activation by a phorbol ester, has been reported to induce the scavenger receptor CD36 in macrophages (Han and […], 2002). CD36 is documented as a PPARγ-regulated gene (Tontonoz et al., 1998). […] THP-1 cells were treated for 5 days with 200 μM etodolac (racemic mixture) and 20 μM troglitazone in the presence or absence of 40 ng/ml phorbol ester (TPA) for 48 hours. Cells were fixed and stained with unconjugated anti-CD36 and FITC conjugated anti-IgG and analyzed by flow cytometry. A population of 10,000 viable cells was analyzed for each treatment.

[4] = test system: LuCaP-35 human prostate cancer xenografts; experiment: Tumor growth of androgen-dependent LuCaP-35 prostate cancer xenografts in nude mice; format: in vivo; conditions: 200 mg/kg o.g. daily; p=0.0103
HER-kinase receptors = experiment: HER-kinase receptor mRNA expression in treated xenografts (RT-PCR); format: in vivo, nude mice; conditions: data not shown
Protocol: as §1, with “spectrometrically. […]” for “spectrometrically.”
as §3, §4

[5] = test system: phospho-MAP kinase in 22Rv1 cells; experiment: Phospho-MAP kinase activation Western blot in 22Rv1 prostate cancer cells; format: cell-based, human; conditions: 500 μM, within 20 minutes of addition, then sustained
Protocol: as §2
The 22Rv1 cells were seeded into 100 mm dishes and allowed to attach for a period of 18 hours. […] MAP-kinase activation was assessed by Western blot analysis using methods described above. […] Cyclin D1 protein and mRNA expression were assessed by western blot and a real-time quantitative RT-PCR assay as previously described. […]

NIH3T3-PPARγ cells = experiment: Neutral lipid accumulation (Oil Red O) in NIH3T3 cells expressing recombinant PPARγ; format: cell-based, mouse
Protocol: Third, PPARγ is accepted as a master regulator of adipocyte differentiation. […] NIH3T3 cells that stably overexpress retrovirally expressed recombinant PPARγ were obtained from Dr. Ronald Evans (Salk Institute, La Jolla, Calif.). […] NIH3T3 cells stably expressing recombinant PPARγ (obtained from Dr. Ronald Evans of the Jonas Salk Institute; San Diego, Calif.) were maintained in DMEM supplemented with 10% BCS, 100 μg/ml penicillin and 100 μg/ml streptomycin (obtained from GIBCO; Grand Island, N.Y.). The cells were treated for seven days with the indicated compounds and concentrations and stained for neutral lipids with Oil Red O as described by Green and Kehinde (“Sublines of mouse 3T3 cells that accumulate lipid,” Cell, Vol. 1, p. 113-116 (1974)).

cyclooxygenase (COX) = conditions: literature (Adachi et al.; Demerson et al.); cited from earlier work
[6] = test system: CWRSA6 human prostate cancer xenografts; conditions: 200 mg/kg o.g. daily; p=0.002
[7] = test system: phospho-p44/42 MAP kinase; experiment: Phospho-MAP kinase (p44/42) Western blot in CWRSA6 xenografts, time course; format: in vivo, nude mice
Protocol: Immunoblots were performed as described in Towbin H., “Electrophoretic Transfer of Proteins from Polyacrylamide Gels to Nitrocellulose Sheets: Procedure and Some Applications,” Proc. Natl. Acad. Sci. USA, Vol. 76, No. 9 p. 4350-4354 (1979) using aliquots of tumor lysates (100 μg per lane) or lysates from LNCaP cells (100 μg per lane). Protein concentration was determined with a Bradford Assay (obtained from Bio-Rad Inc.; Hercules, Calif.). The lysates were separated on 10% SDS polyacrylamide gels and transferred onto nitrocellulose filters. The membranes were incubated overnight at 4° C. with antibodies against PPARγ (Sc-7273 obtained from Santa Cruz Inc.; Santa Cruz, Calif.), ERK1 (Sc-94 obtained from Santa Cruz Inc.; Santa Cruz, Calif.), and phospho-p44/42 MAP kinase (9101S obtained from Cell Signal; Beverly, Mass.), and cyclin D1 (554180 obtained from BD Pharmingen; San Diego, Calif.) in parallel with anti-β-actin antibodies (A2066 obtained from Sigma; St. Louis, Mo.) and washed well before incubating with the appropriate α-mouse or α-rabbit secondary antibody conjugated with horseradish peroxidase (obtained from Amersham Biosciences, UK).

2C4: Recombinant humanized HER-2 specific monoclonal antibody that inhibits ligand-induced heterodimerization of ErbB2
PPARγ protein by immunoblot in xenograft lysates of combination study (PPARγ1; CWRSA6 xenografts): expressed PPARγ
Lethal toxicity or significant weight loss [1]: no lethal toxicity or significant weight loss

COc1ccc2c(c1)c(CC(=O)O)c(C)n2C(=O)c1ccc(Cl)cc1 [indomethacin]
PPARγ transactivation compared with 100 μM R-etodolac (PPARγ; 10 μM): comparable

CCc1cccc2c3c([nH]c12)[C@@](CC)(CC(=O)O)OCC3 [R-etodolac]
Cyclin D1 protein expression ([2]; 18 hours, 200, 400 and 600 μM): downregulation
Cyclin D1 mRNA expression ([2]; 18 hours, 200 and 400 μM): downregulation
CD36 expression as downstream indicator of PPARγ activation [3]: equivalent potency
Tumor growth inhibition relative to control-treated animals [4]: 46%
mRNA expression of the HER-kinase receptors (HER-kinase receptors): did not alter
PPARγ protein in tumors vs vehicle treated control (PPARγ1; CWRSA6 and LuCaP-35 xenografts, two to three weeks of treatment, 200 mg/kg): completely eliminated
PPARγ receptor level in time course experiment (PPARγ1; CWRSA6 xenografts, 24 to 72 hours post treatment): upregulation of the PPARγ receptor in the majority of the animals
PPARγ protein by immunoblot in xenograft lysates of combination study (PPARγ1; CWRSA6 xenografts): complete ablation
Phospho-MAP kinase activation [5]: transient peak
Lethal toxicity or weight loss (greater than 10% body weight) ([1]; 200 mg/kg o.g. daily, single agent study): no lethal toxicity or weight loss
Lethal toxicity or significant weight loss [1]: no lethal toxicity or significant weight loss
Accumulation of neutral lipids and morphological changes (Oil Red O) (NIH3T3-PPARγ cells; 1 μM, seven days): displayed accumulation of neutral lipids
Lipid uptake (Oil Red O) (NIH3T3-PPARγ cells; 500 μM, seven days): significantly more pronounced
Lipid uptake in NIH3T3 cells transfected with the empty retroviral vector (NIH3T3-PPARγ cells; empty vector control cells, data not shown): did not demonstrate the lipid uptake
COX inhibitory activity (cyclooxygenase (COX)): lacks COX inhibitory activity
Transactivation of PPARγ reporter (fold-induction of luciferase expression) (PPARγ; 100 μM, relative to no drug control, 24 hours): 13 fold
PPRE-driven reporter gene expression / PPARγ transactivation (PPARγ): enhances reporter gene expression in a dose dependent manner
Tumor growth inhibition relative to control-treated animals [6]: 66%
Phosphorylated p44/42 levels ([7]; 24 hours post treatment, 200 mg/kg): sharp increase
Total MAP kinase expression ([7]; time course): No difference
MAP kinase activation, rest of time course ([7]; up to 72 hours): low level of sustained activation

CCc1cccc2c3c([nH]c12)[C@](CC)(CC(=O)O)OCC3 [S-etodolac]
PPRE-driven reporter gene expression / PPARγ transactivation (PPARγ): can also transactivate PPARγ but to significantly lower levels
